US12583866B2, “Pyrido[2,3-b][1,4]oxazines or tetrahydropyrido[2,3-b][1,4]oxazepines as IAP antagonists” (BEIGENE, LTD., priority 2020, dated 2026)

Experiments:
[1] = molecular target: T1, recombinant human cIAP1-BIR3 protein (Homo sapiens, UniProt Q13490); assay: Recombinant human c-IAP1-BIR3 biochemical assay (HTRF, peptide displacement); conditions: 1.2 nM cIAP1-BIR3, 3 nM AbuRPF-K(5-Fam)-NH2 peptide, read-out: Protein binding IC50 (nM) c-IAP1
T1 construct: recombinant human cIAP1-BIR3 protein; purchased Reaction biology APT-11-370
T1 sequence (Q13490 253-363 limits assumed): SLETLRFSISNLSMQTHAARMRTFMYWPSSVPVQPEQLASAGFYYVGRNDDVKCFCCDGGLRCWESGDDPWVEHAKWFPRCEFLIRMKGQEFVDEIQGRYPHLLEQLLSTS
Method in brief: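 HTRF peptide displacement: after 1 h compound pre-incubation (max 10 uM, 4-fold dilutions, 10 points) with 1.2 nM protein in HEPES pH 7.5 buffer, 3 nM 5-Fam-labelled AbuRPF-K peptide and Tb-anti-6His were each added for 1 h at room temperature. Inhibition taken from 520/490 nm ratio, fitted four-parameter logistic for IC50.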

[2] = molecular target: T2, recombinant human cIAP2-BIR3 protein (Homo sapiens, UniProt Q13489); assay: Recombinant human c-IAP2-BIR3 biochemical assay (HTRF, peptide displacement); conditions: 3.7 nM cIAP2-BIR3, 3.7 nM AbuRPF-K(5-Fam)-NH2 peptide, read-out: Protein binding IC50 (nM) c-IAP2
T2 construct: recombinant human cIAP2-BIR3 protein; purchased Reaction biology APT-11-372
T2 sequence (Q13489 238-349 limits assumed): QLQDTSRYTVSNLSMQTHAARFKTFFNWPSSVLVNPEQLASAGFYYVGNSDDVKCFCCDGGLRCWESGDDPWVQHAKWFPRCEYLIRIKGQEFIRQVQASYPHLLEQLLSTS
Method in brief: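 HTRF peptide-displacement readout (ex337, em520/490 ratio) after sequential 1 h room-temperature steps: compound with 3.7 nM protein, then 3.7 nM 5-Fam-labelled AbuRPF peptide, then Tb-cryptate anti-6His antibody. Buffer pH 7.5 HEPES with NaCl, Tween-20, DTT; 10-point 4-fold dilutions from 10 uM; four-parameter logistic IC50.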

[3] = molecular target: T3, recombinant human XIAP-BIR3 protein (Homo sapiens, UniProt P98170); assay: Recombinant human XIAP-BIR3 biochemical assay (HTRF, peptide displacement); conditions: 3.7 nM XIAP-BIR3, 7.6 nM AbuRPF-K(5-Fam)-NH2 peptide, read-out: Protein binding IC50 (nM) XIAP
T3 construct: recombinant human XIAP-BIR3 protein; purchased Reaction biology APT-11-374
T3 sequence (P98170 241-356 limits assumed): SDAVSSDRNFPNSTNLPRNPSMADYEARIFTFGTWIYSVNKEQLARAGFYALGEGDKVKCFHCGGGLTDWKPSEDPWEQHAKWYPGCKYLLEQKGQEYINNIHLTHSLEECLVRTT
Method in brief: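 HTRF peptide displacement with 7.6 nM 5-Fam-labelled AbuRPF peptide, anti-6His Tb donor and 3.7 nM recombinant XIAP-BIR3. Protein and compound (10-point, 4-fold from 10 µM) were preincubated 1 h RT in HEPES pH 7.5 buffer before each addition, each 1 h. IC50 by four-parameter fit of the 520/490 nm ratio.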

Compound | IC50 [1] | IC50 [2] | IC50 [3]
C[C@@H]1CN(CC(=O)N2c3cc(Cc4ccc(F)cc4)c(CO)nc3OC[C@@H]2C)[C@@H](CN2CCOC[C@@H]2C(F)(F)F)CN1 [Compound 91B, 1-((S)-7-(4-fluorobenzyl)-6-(hydroxymethyl)-2-methyl-2,3-dihydro-1H-pyrido[2,3-b][1,4]oxazin-1-yl)-2-((2R,5R)-5-methyl-2-(((R)-3-(trifluoromethyl)morpholino)methyl)piperazin-1-yl)ethan-1-one] | 47 nM | 108 nM | 543 nM
C[C@@H]1CN(CC(=O)N2c3cc(Cc4ccc(F)cc4)c(NS(=O)(=O)C4CC4)nc3OC[C@@H]2C)[C@@H](CN2[C@H](C)COC[C@H]2C)CN1 [Compound 123, N—((S)-1-(2-((2R,5R)-2-(((3R,5R)-3,5-dimethylmorpholino)methyl)-5-methylpiperazin-1-yl)acetyl)-7-(4-fluorobenzyl)-2-methyl-2,3-dihydro-1H-pyrido[2,3-b][1,4]oxazin-6-yl)cyclopropanesulfonamide] | 0.2 nM | 0.35 nM | 4.4 nM
CC1CN(C(=O)CN2C[C@@H](C)NC[C@@H]2CN2CCOC[C@H]2C)c2cc(Cc3ccc(F)cc3)c(Br)nc2O1 (stereo partly drawn) [Compound 11, 1-(6-bromo-7-(4-fluorobenzyl)-3-methyl-2,3-dihydro-1H-pyrido[2,3-b][1,4]oxazin-1-yl)-2-((2R,5R)-5-methyl-2-(((R)-3-methylmorpholino)methyl)piperazin-1-yl)ethan-1-one] | 8 nM | 17 nM | 220 nM
C[C@@H]1CN(CC(=O)N2c3cc(Cc4ccc(F)cc4)c(CO)nc3OC[C@@H]2C)[C@@H](CN2CCOCC2(C)C)CN1 [Compound 48] | 0.45 nM | 0.79 nM | 12 nM
C[C@@H]1CN(CC(=O)N2c3cc(Cc4ccc(F)cc4)c(CO)nc3OC[C@@H]2C)[C@@H](CN2C[C@@H]3C[C@H]2CO3)CN1 [Example 85, 2-((2R,5R)-2-(((1S,4S)-2-oxa-5-azabicyclo[2.2.1]heptan-5-yl)methyl)-5-methylpiperazin-1-yl)-1-((S)-7-(4-fluorobenzyl)-6-(hydroxymethyl)-2-methyl-2,3-dihydro-1H-pyrido[2,3-b][1,4]oxazin-1-yl)ethan-1-one] | 0.68 nM | 0.72 nM | 20 nM
C[C@@H]1CN(CC(=O)N2c3cc(Cc4ccc(F)cc4)c(CO)nc3OC[C@@H]2C)[C@@H](CN2CCOC[C@H]2C2CC2)CN1 [Example 84A, 2-((2R,5R)-2-(((R)-3-cyclopropylmorpholino)methyl)-5-methylpiperazin-1-yl)-1-((S)-7-(4-fluorobenzyl)-6-(hydroxymethyl)-2-methyl-2,3-dihydro-1H-pyrido[2,3-b][1,4]oxazin-1-yl)ethan-1-one] | 0.29 nM | 0.44 nM | 6.4 nM
C[C@@H]1CN(CC(=O)N2c3cc(Cc4ccc(F)cc4)c(C(=O)N4CCCCC4)nc3OC[C@@H]2C)[C@@H](CN2[C@H](C)COC[C@H]2C)CN1 [Compound 102, 2-((2R,5R)-2-(((3R,5R)-3,5-dimethylmorpholino)methyl)-5-methylpiperazin-1-yl)-1-((S)-7-(4-fluorobenzyl)-2-methyl-6-(piperidine-1-carbonyl)-2,3-dihydro-1H-pyrido[2,3-b][1,4]oxazin-1-yl)ethan-1-one] | 0.24 nM | 0.49 nM | 5.7 nM
C[C@@H]1CN(CC(=O)N2c3cc(Cc4ccc(F)cc4)c(C(=O)NCC(F)(F)F)nc3OC[C@@H]2C)[C@@H](CN2[C@H](C)COC[C@H]2C)CN1 [Example 64] | 0.25 nM | 0.29 nM | 2.3 nM
C[C@@H]1CN(CC(=O)N2c3cc(Cc4ccc(F)cc4)c(C(=O)N4CCOCC4)nc3OC[C@@H]2C)[C@@H](CN2[C@H](C)COC[C@H]2C)CN1 [Example 72, 2-((2R,5R)-2-(((3R,5R)-3,5-dimethylmorpholino)methyl)-5-methylpiperazin-1-yl)-1-((S)-7-(4-fluorobenzyl)-2-methyl-6-(morpholine-4-carbonyl)-2,3-dihydro-1H-pyrido[2,3-b][1,4]oxazin-1-yl)ethan-1-one] | 0.35 nM | 0.42 nM | 7.6 nM
C[C@@H]1CN(CC(=O)N2c3cc(Cc4ccc(F)cc4)c(C(=O)Nc4ccc(F)cc4)nc3OC[C@@H]2C)[C@@H](CN2[C@H](C)COC[C@H]2C)CN1 [Example 71, (S)-1-(2-((2R,5R)-2-(((3R,5R)-3,5-dimethylmorpholino)methyl)-5-methylpiperazin-1-yl)acetyl)-7-(4-fluorobenzyl)-N-(4-fluorophenyl)-2-methyl-2,3-dihydro-1H-pyrido[2,3-b][1,4]oxazine-6-carboxamide] | 0.26 nM | 0.57 nM | 7.9 nM
C[C@@H]1CN(CC(=O)N2CCOc3nc(Br)c(Cc4ccc(F)cc4)cc32)[C@@H](CN2CCOC[C@H]2C)CN1 [Compound 4, 1-(6-bromo-7-(4-fluorobenzyl)-2,3-dihydro-1H-pyrido[2,3-b][1,4]oxazin-1-yl)-2-((2R,5R)-5-methyl-2-(((R)-3-methylmorpholino)methyl)piperazin-1-yl)ethan-1-one] | 0.5 nM | 0.92 nM | 17 nM
CCOc1nc2c(cc1Cc1ccc(F)cc1)N(C(=O)CN1C[C@@H](C)NC[C@@H]1CN1CCOC[C@H]1C)CCO2 [Compound 17, 1-(6-ethoxy-7-(4-fluorobenzyl)-2,3-dihydro-1H-pyrido[2,3-b][1,4]oxazin-1-yl)-2-((2R,5R)-5-methyl-2-(((R)-3-methylmorpholino)methyl)piperazin-1-yl)ethan-1-one] | 0.53 nM | 1.3 nM | 5.4 nM
C[C@@H]1CN(CC(=O)N2c3cc(Cc4ccc(F)cc4)c(C(N)=O)nc3OC[C@@H]2C)[C@@H](CN2CCOC[C@H]2C(F)F)CN1 [Example 82] | 0.54 nM | 0.73 nM | 10 nM

Now from value to molecule:

IC50 [1] | IC50 [2] | IC50 [3] | Compound
0.2 nM | 0.4 nM | 7.2 nM | C[C@@H]1CN(CC(=O)N2c3cc(Cc4ccc(F)cc4F)c(C(N)=O)nc3OC[C@@H]2C)[C@@H](CN2[C@H](C)COC[C@H]2C)CN1 [Example 83, (S)-7-(2,4-difluorobenzyl)-1-(2-((2R,5R)-2-(((3R,5R)-3,5-dimethylmorpholino)methyl)-5-methylpiperazin-1-yl)acetyl)-2-methyl-2,3-dihydro-1H-pyrido[2,3-b][1,4]oxazine-6-carboxamide]
0.19 nM | 0.33 nM | 5.2 nM | C[C@@H]1CN(CC(=O)N2c3cc(Cc4ccc(F)cc4)c(C(=O)N[C@H]4CCOC4)nc3OC[C@@H]2C)[C@@H](CN2[C@H](C)COC[C@H]2C)CN1 [Example 79, (S)-1-(2-((2R,5R)-2-(((3R,5R)-3,5-dimethylmorpholino)methyl)-5-methylpiperazin-1-yl)acetyl)-7-(4-fluorobenzyl)-2-methyl-N—((S)-tetrahydrofuran-3-yl)-2,3-dihydro-1H-pyrido[2,3-b][1,4]oxazine-6-carboxamide]
0.11 nM | 0.24 nM | 12 nM | C[C@@H]1CN(CC(=O)N2c3cc(Cc4ccc(F)cc4)cnc3OC[C@@H]2COc2ccccc2)[C@@H](CN2CCOC[C@H]2C)CN1 [Compound 41]
0.17 nM | 0.31 nM | 3.2 nM | C[C@@H]1CN(CC(=O)N2c3cc(Cc4ccc(F)cc4)c(C(=O)N[C@@H]4CCOC4)nc3OC[C@@H]2C)[C@@H](CN2[C@H](C)COC[C@H]2C)CN1 [Example 78, (S)-1-(2-((2R,5R)-2-(((3R,5R)-3,5-dimethylmorpholino)methyl)-5-methylpiperazin-1-yl)acetyl)-7-(4-fluorobenzyl)-2-methyl-N—((R)-tetrahydrofuran-3-yl)-2,3-dihydro-1H-pyrido[2,3-b][1,4]oxazine-6-carboxamide]
0.09 nM | 0.14 nM | 8.2 nM | C[C@@H]1CN(CC(=O)N2c3cc(Cc4ccc(F)cc4)cnc3OC[C@@H]2COc2ccccc2)[C@@H](CN2[C@H](C)COC[C@H]2C)CN1 [Compound 40, 2-((2R,5R)-2-(((3R,5R)-3,5-dimethylmorpholino)methyl)-5-methylpiperazin-1-yl)-1-((S)-7-(4-fluorobenzyl)-2-(phenoxymethyl)-2,3-dihydro-1H-pyrido[2,3-b][1,4]oxazin-1-yl)ethan-1-one]
0.19 nM | 0.25 nM | 2.3 nM | C[C@@H]1CN(CC(=O)N2c3cc(Cc4ccc(F)cc4)c(C(=O)NC[C@@H]4CCOC4)nc3OC[C@@H]2C)[C@@H](CN2[C@H](C)COC[C@H]2C)CN1 [Compound 95, (S)-1-(2-((2R,5R)-2-(((3R,5R)-3,5-dimethylmorpholino)methyl)-5-methylpiperazin-1-yl)acetyl)-7-(4-fluorobenzyl)-2-methyl-N—(((S)-tetrahydrofuran-3-yl)methyl)-2,3-dihydro-1H-pyrido[2,3-b][1,4]oxazine-6-carboxamide]
